Test [1] relates to MDR-MTB isolates LZ94 and LZ99. The test can be described thus: microbe, parasite or virus in culture. The class given is cell-based, Mycobacterium tuberculosis.
Test [2] has as its system clinical Mycobacterium tuberculosis strains (HrRr: 77#, 76#, 80#). The test can be described thus: microbe, parasite or virus in culture. The class given is cell-based. Particulars: for MIC: Mycobacterium tuberculosis.
Where [3] appears, read: Mycobacterium tuberculosis, read-out: MIC.

SMILES strings stand for the structures. ≈ marks a conversion by molar mass, not a printed value. Like-named read-outs stand apart in the source and are kept apart here.

Consider 4 compounds from US11529354B2, “Methods and compositions for the treatment of tuberculosis” (PRESIDENT AND FELLOWS OF HARVARD COLLEGE, priority 2017, dated 2022).

Regarding `CO[C@H]1/C=C/O[C@@]2(C)Oc3c(C)c(O)c4c(O)c(c(/C=N/N5CCN(C)CC5)c(O)c4c3C2=O)NC(=O)/C(C)=C\C=C\[C@H](C)[C@H](O)[C@@H](C)[C@@H](O)[C@@H](C)[C@H](OC(C)=O)[C@@H]1C` [Rifampicin, reference compound], the MIC in test [1] (Mycobacterium tuberculosis) was 2 µg/mL (≈ 2.43 µM).
For the compound `CO[C@@H]1[C@@H](OC(=O)c2ccc(C)[nH]2)[C@@H](O)[C@H](Oc2ccc3c(O)c(NC(=O)c4ccc(O)c(CC=C(C)C)c4)c(=O)oc3c2Cl)OC1(C)C` [NSC 227186, [(3R,4S,5R,6S)-6-[8-chloro-4-hydroxy-3-[[4-hydroxy-3-(3-methylbut-2-enyl)benzoyl]amino]-2-oxochromen-7-yl]oxy-5-hydroxy-3-methoxy-2,2-dimethyloxan-4-yl]5-methyl-1H-pyrrole-2-carboxylate], in test [1] (setting [3]), the MIC was found to be 0.625 µg/mL (≈ 0.897 µM).
Turning to `Cn1ccc(=Nc2ccc(NC(=O)c3ccc(N=c4ccn(C)c5ccc([N+](=O)[O-])cc45)cc3)cc2)cc1` [NSC 260594, 4-[(1-methyl-6-nitroquinolin-4-ylidene)amino]-N-[4-[(1-methylpyridin-4-ylidene)amino]phenyl]benzamide], the MIC came out at 1.25 µg/mL (≈ 2.48 µM) in test [1]; 0.625 µg/mL (≈ 1.24 µM) in test [1] (Mycobacterium tuberculosis, Table 7 and text, […], read-out: MIC); 0.625 µg/mL (≈ 1.24 µM) in test [1] (setting [3]); 1.25 µg/mL (≈ 2.48 µM) in test [1] (Table 7 and text, […], listed as Formula XI).
Regarding `Cc1ccc2[nH]c3c(c2c1)CCCC3NCc1ccccc1` (stereo not shown) [CAS 118498-98-9, N-benzyl-6-methyl-2,3,4,9-tetrahydro-1H-carbazol-1-amine], in test [2], the “concentration increase required to inhibit the drug resistant strains” value was “four-fold”. For the same compound, the MIC in test [2] is 3.2 µg/mL (≈ 11 µM); in test [2] (strain 76#, HrRr), 25.6 µg/mL (≈ 88.2 µM); in test [2] (strain 80#, HrRr) it was 25.6 µg/mL (≈ 88.2 µM).
